Results: patent US12545637B2, “Extrahepatic targeted cationic lipid compound with high efficiency and low toxicity and its composition” (BEIJING YOUCARE KECHUANG PHARMACEUTICAL TECHNOLOGY CO., LTD., priority 2023, dated 2026)
Where “and” joins values, the source holds several entries; their conditions need not be identical. Identical values can stand only once.

Experiments:
[1] = system: 293T cells; assay: Cell survival rate assay (CCK-8); format: cell-based; settings: for Cell survival rate: LNP with 1.5 μg Fluc-mRNA, 24 hours, CCK-8; for cell survival rate higher than ALC-0315: difference vs ALC-0315; for cell survival rate higher than HIMA: difference vs HIMA (HHMA); for cell survival rate higher than Lipofectamine 3000: difference vs Lipofectamine 3000; for cell survival rate higher than SM-102: difference vs SM-102; for cell survival rate higher than YK-404: difference vs YK-404; for cell survival rate higher than YK-405: difference vs YK-405; for cell survival rate higher than YK-406: difference vs YK-406; for cell survival rate higher than YK-408: difference vs YK-408; for cell survival rate higher than YK-409: difference vs YK-409; for cell survival rate higher than YK-410: difference vs YK-410; for cell survival rate higher than YK-411: difference vs YK-411; for cell survival rate higher than YK-412: difference vs YK-412; for cell survival rate higher than YK-413: difference vs YK-413; for cell survival rate higher than YK-414: difference vs YK-414; for cell survival rate higher than YK-415: difference vs YK-415; for cell survival rate higher than YK-416: difference vs YK-416; for cell survival rate higher than YK-417: difference vs YK-417; for cell survival rate higher than YK-418: difference vs YK-418; for cell survival rate higher than YK-419: difference vs YK-419; for cell survival rate higher than YK-420: difference vs YK-420; for cell survival rate higher than YK-421: difference vs YK-421; for cell survival rate higher than YK-424: difference vs YK-424; for cell survival rate higher than compound 21: difference vs compound 21; for cell survival rate higher than compound 23: difference vs compound 23; for cytotoxicity reduced compared with YK-411: rounded summary statement vs YK-411
How it was run: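 293T cells seeded at 10,000 cells/well, cultured overnight, then exposed 24 h to LNP carrying 1.5 μg Fluc-mRNA (cationic:neutral:structured:PEG-type lipid 49:10:39.5:1.5) or Lipofectamine 3000. Viability read by CCK-8, 1 h incubation, absorbance at 450 nm.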

[2] = Detection of encapsulation efficiency, drug loading concentration and total RNA concentration (RiboGreen); format: physicochemical; settings: for Drug loading concentration / Encapsulation efficiency / Total RNA concentration: LNP formulation prepared from the cationic lipid; for encapsulation efficiency higher than ALC-0315: difference vs ALC-0315; for encapsulation efficiency higher than HIMA: difference vs HIMA (HHMA); for encapsulation efficiency higher than SM-102: difference vs SM-102; for encapsulation efficiency higher than YK-009: difference vs YK-009; for encapsulation efficiency higher than compound 21: difference vs compound 21; for encapsulation efficiency higher than compound 23: difference vs compound 23; for drug loading concentration, times that of ALC-0315 / total RNA concentration, times that of ALC-0315: ratio vs ALC-0315; for drug loading concentration, times that of HIMA / total RNA concentration, times that of HIMA: ratio vs HIMA (HHMA); for drug loading concentration, times that of SM-102 / total RNA concentration, times that of SM-102: ratio vs SM-102; for drug loading concentration, times that of YK-009 / total RNA concentration, times that of YK-009: ratio vs YK-009; for drug loading concentration, times that of compound 21 / total RNA concentration, times that of compound 21: ratio vs compound 21; for drug loading concentration, times that of compound 23 / total RNA concentration, times that of compound 23: ratio vs compound 23
How it was run: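 LNP samples were diluted in 1×TE to approximately […], then mixed with 1×TE and 0.1% Triton X-100 buffers. After 10 minutes at 37 °C, RiboGreen (1:200) was added and fluorescence read against an mRNA standard, giving encapsulation efficiency, drug loading concentration and total RNA concentration.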

[3] = system: female BALB/C mice; assay: Distribution of liposomes in mice (protein expression in liver, spleen, lung, heart and kidney); format: in vivo; settings: mouse, in vivo
Protocol: The LNP formulation (prepared according to Example 4) containing […] Fluc-mRNA was injected intramuscularly into female BALB/C mice aged 4-6 weeks and weighed 17-19 g, and the mice were intraperitoneally injected with fluorescent imaging substrate at specific time points after administration (6h, 24 h, 48h and 7d), where the mice were allowed to free move for 5 minutes, and then the average radiation intensity (corresponding to fluorescence expression intensity) of the protein expression of the mRNA carried by the LNP in the mice was detected by the IVIS Spectrum small animal in vivo imaging system.
Current mRNA vaccines usually express proteins in muscle.

Q: With `CCCCCCCCCCCOC(=O)CCCN(CCO)CCN(CCO)CCCCCC(=O)OC(CCCCCCCC)CCCCCCCC` [YK-407] as the molecule, how does the Cell survival rate [1] read?
A: 71.37%

Q: What about the “cell survival rate higher than ALC-0315” value [1] of the same molecule?
A: 24.16%

Q: And the “cell survival rate higher than HIMA” value [1]?
A: 7.10%

Q: And the “cell survival rate higher than Lipofectamine 3000” value [1]?
A: 49.71%

Q: What about the “cell survival rate higher than SM-102” value [1] of the same molecule?
A: 3.47%

Q: What about the “cell survival rate higher than YK-404” value [1] of the same molecule?
A: 29.25%

Q: What about the “cell survival rate higher than YK-405” value [1] of the same molecule?
A: 29.51%

Q: And the “cell survival rate higher than YK-406” value [1]?
A: 46.41%

Q: And the “cell survival rate higher than YK-408” value [1]?
A: 29.06%

Q: What about the “cell survival rate higher than YK-409” value [1] of the same molecule?
A: 25.26%

Q: And the “cell survival rate higher than YK-410” value [1]?
A: 26.45%

Q: And the “cell survival rate higher than YK-411” value [1]?
A: 55.04%

Q: And the “cell survival rate higher than YK-412” value [1]?
A: 17.23%

Q: And the “cell survival rate higher than YK-413” value [1]?
A: 24.17%

Q: What about the “cell survival rate higher than YK-414” value [1] of the same molecule?
A: 42.62%

Q: And the “cell survival rate higher than YK-415” value [1]?
A: 10.21%

Q: What about the “cell survival rate higher than YK-416” value [1] of the same molecule?
A: 30.40%

Q: And the “cell survival rate higher than YK-417” value [1]?
A: 50.03%

Q: And the “cell survival rate higher than YK-418” value [1]?
A: 50.32%

Q: And the “cell survival rate higher than YK-419” value [1]?
A: 32.45%

Q: And the “cell survival rate higher than YK-420” value [1]?
A: 35.78%

Q: And the “cell survival rate higher than YK-421” value [1]?
A: 35.66%

Q: What about the “cell survival rate higher than YK-424” value [1] of the same molecule?
A: 43.44%

Q: And the “cell survival rate higher than compound 21” value [1]?
A: 3.53%

Q: And the “cell survival rate higher than compound 23” value [1]?
A: 2.26%

Q: What about the “cytotoxicity reduced compared with YK-411” value [1] of the same molecule?
A: 50% and 55%

Q: And the Drug loading concentration [2]?
A: 35.67 µg/mL

Q: And the Encapsulation efficiency [2]?
A: 85.2%

Q: What about the “Total RNA concentration” value [2] of the same molecule?
A: 40.77 µg/mL

Q: And the “encapsulation efficiency higher than ALC-0315” value [2]?
A: 21.9%

Q: What about the “encapsulation efficiency higher than HIMA” value [2] of the same molecule?
A: 25.0%

Q: What about the “encapsulation efficiency higher than SM-102” value [2] of the same molecule?
A: 22.3%

Q: What about the “encapsulation efficiency higher than YK-009” value [2] of the same molecule?
A: 21.8%

Q: What about the “encapsulation efficiency higher than compound 21” value [2] of the same molecule?
A: 27.2%

Q: What about the “encapsulation efficiency higher than compound 23” value [2] of the same molecule?
A: 29.0%

Q: And the “drug loading concentration, times that of ALC-0315” value [2]?
A: 1.33

Q: What about the “total RNA concentration, times that of ALC-0315” value [2] of the same molecule?
A: 1.08

Q: What about the “drug loading concentration, times that of HIMA” value [2] of the same molecule?
A: 1.09

Q: What about the “total RNA concentration, times that of HIMA” value [2] of the same molecule?
A: 1.12

Q: What about the “drug loading concentration, times that of SM-102” value [2] of the same molecule?
A: 1.34

Q: And the “total RNA concentration, times that of SM-102” value [2]?
A: 1.13

Q: What about the “drug loading concentration, times that of YK-009” value [2] of the same molecule?
A: 1.30

Q: And the “total RNA concentration, times that of YK-009” value [2]?
A: 1.06

Q: And the “drug loading concentration, times that of compound 21” value [2]?
A: 1.62

Q: And the “total RNA concentration, times that of compound 21” value [2]?
A: 1.41

Q: And the “drug loading concentration, times that of compound 23” value [2]?
A: 1.78

Q: What about the “total RNA concentration, times that of compound 23” value [2] of the same molecule?
A: 1.31

Q: And the “protein expression in the liver” value [3]?
A: had no protein expression in the liver

Q: And the “protein expression in the spleen” value [3]?
A: had protein expression in the spleen

Q: Which results are given for `CCCCCCCCC(CCCCCCCC)C(=O)OCCCCCCN(CCO)CCN(CCO)CCCCCCOC(=O)C(CCCCCCCC)CCCCCCCC` [YK-402]?
A: Cell survival rate [1]: 72.70%; cell survival rate higher than ALC-0315 [1]: 25.49%; cell survival rate higher than HIMA [1]: 8.43%; cell survival rate higher than Lipofectamine 3000 [1]: 51.04%; cell survival rate higher than SM-102 [1]: 4.80%; cell survival rate higher than YK-404 [1]: 30.58%; cell survival rate higher than YK-405 [1]: 30.84%; cell survival rate higher than YK-406 [1]: 47.74%; cell survival rate higher than YK-408 [1]: 30.39%; cell survival rate higher than YK-409 [1]: 26.59%; cell survival rate higher than YK-410 [1]: 27.78%; cell survival rate higher than YK-411 [1]: 56.37%; cell survival rate higher than YK-412 [1]: 18.56%; cell survival rate higher than YK-413 [1]: 25.50%; cell survival rate higher than YK-414 [1]: 43.95%; cell survival rate higher than YK-415 [1]: 11.54%; cell survival rate higher than YK-416 [1]: 31.73%; cell survival rate higher than YK-417 [1]: 51.36%; cell survival rate higher than YK-418 [1]: 51.65%; cell survival rate higher than YK-419 [1]: 33.78%; cell survival rate higher than YK-420 [1]: 37.11%; cell survival rate higher than YK-421 [1]: 36.99%; cell survival rate higher than YK-424 [1]: 44.77%; cell survival rate higher than compound 21 [1]: 4.86%; cell survival rate higher than compound 23 [1]: 3.59%; cytotoxicity reduced compared with YK-411 [1]: 50%; Drug loading concentration [2]: 37.67 µg/mL; Encapsulation efficiency [2]: 91.0%; Total RNA concentration [2]: 40.09 µg/mL; encapsulation efficiency higher than ALC-0315 [2]: 27.7%; encapsulation efficiency higher than HIMA [2]: 30.8%; encapsulation efficiency higher than SM-102 [2]: 28.1%; encapsulation efficiency higher than YK-009 [2]: 27.6%; encapsulation efficiency higher than compound 21 [2]: 33.0%; encapsulation efficiency higher than compound 23 [2]: 34.8%; drug loading concentration, times that of ALC-0315 [2]: 1.40; total RNA concentration, times that of ALC-0315 [2]: 1.06; drug loading concentration, times that of HIMA [2]: 1.15; total RNA concentration, times that of HIMA [2]: 1.10; drug loading concentration, times that of SM-102 [2]: 1.42; total RNA concentration, times that of SM-102 [2]: 1.11; drug loading concentration, times that of YK-009 [2]: 1.37; total RNA concentration, times that of YK-009 [2]: 1.04; drug loading concentration, times that of compound 21 [2]: 1.71; total RNA concentration, times that of compound 21 [2]: 1.39; drug loading concentration, times that of compound 23 [2]: 1.88; total RNA concentration, times that of compound 23 [2]: 1.29; protein expression in the liver ([3]; female, BALB/C, 6 h): reduced compared with SM-102; protein expression in the liver [3]: had protein expression in the liver; protein expression in the spleen [3]: had protein expression in the spleen
